# From patent US4696912A, “Stabilized compositions” (priority 1986, dated 1987)
# Like-named read-outs stand apart in the source and are kept apart here.
# What was measured:
# L1210 Leukemia Cells = assay: In vitro activity of CL-1565-A against L1210 leukemia cells; assay type: cell-based; settings: Mus musculus, read-out: ID50 (the source's name)
# Saccharomyces cervisiae = assay: Antifungal activity, paper disk zone of inhibition; assay type: cell-based; settings: 12.7 mm paper disks, 500 ug/ml, overnight at 28° C., read-out: Zone diameter
# Description: (§1) Paper disks (12.7 mm in diameter) impregnated with an aqueous solution containing 500 ug of CL-1565-A/ml were placed on a layer of agar inoculated with the indicated microorganisms. After incubation overnight at 28° C., the following zones of inhibition were observed.
# Saccharomyces italicus = assay: Antifungal activity, paper disk zone of inhibition; assay type: cell-based; settings: 12.7 mm paper disks, 500 ug/ml, overnight at 28° C.; read-out: Zone diameter
# Description: as §1
# P388 Lymphatic Leukemia = assay: In vivo antitumor activity against P388 lymphatic leukemia in mice
# Text: In Vivo Antitumor Activity of CL-1565-A Against P388 Lymphatic Leukemia in Mice
# The test method used is based on that described in Cancer Chemother. Reports 3:1-87 (part 3). 1972.
# [1] = Stability in solid state form (HPLC assay); assay type: physicochemical; settings: for remaining at 168 h / remaining at 504 h / remaining at 840 h: Table 1, solid state; for remaining at 168 h: 1 week; for remaining at 168 h / remaining at 504 h / remaining at 840 h / remaining at 2160 h / remaining at 3600 h / remaining at 6480 h / remaining at 16560 h: read-out: % CL-1565-A Remaining; for remaining at 504 h: 3 weeks; for remaining at 840 h: 5 weeks; for remaining at 2160 h / remaining at 3600 h / remaining at 6480 h / remaining at 16560 h: Table 3, solid form; for remaining at 2160 h: 3 months; for remaining at 3600 h: 5 months; for remaining at 6480 h: 9 months; for remaining at 16560 h: 23 months
# Description: *Samples prepared by lyophilization of 1.5 mL aliquots of an aqueous
# solution containing 15 mg of CL1565-A per ml.
# ^a Samples prepared by lyophilization of 1.5 mL of an aqueous solutio
# containing 15 mg/mL of CL1565-A in 6mL serum vials.
# ^b Samples prepared by mixing CL1565-A and sodium ascorbate (1:1 mola
# ratio) in solution prior to lyophilization.
# (§2) CL-1565-A content was assayed by HPLC using a uBondapak C-18 silica gel column (Waters Assoc.) and 0.05 M pH 6.8 sodium phosphate buffer--acetonitrile (89:11) as the mobile phase, at a flow rate of 2 mL/minute. The retention time of CL-1565-A in this system is approximately 4.7 minutes. Solid samples were reconstituted in 100 mL of water immediately prior to HPLC assay. Solutions of CL-1565-A were diluted to a final concentration of 300 ug/mL with water prior to assay.
# [2] = Stability in aqueous solution (HPLC assay); assay type: physicochemical; settings: for remaining at 168 h / remaining at 336 h / remaining at 552 h / remaining at 48 h: aqueous solution, read-out: % CL-1565-A Remaining; for remaining at 168 h: 7 days; for remaining at 336 h: 14 days; for remaining at 48 h: 2 days
# Description: ^b Solutions prepared by adding sodium ascorbate to solutions of
# CL1565-A to yield an equimolar concentration.
# as §2
# [3] = Table 2, aqueous solution 5 mg/mL, 5° C.
# [4] = Table 2, aqueous solution 5 mg/mL, 25° C.
# [5] = Table 2, aqueous solution 15 mg/mL, 5° C.
# [6] = Table 2, aqueous solution 15 mg/mL, 25° C.
compound,measurement,setting,value
CC(O)(C=CC1CC=CC(=O)O1)C(CC(O)C=CC=CC=CCO)OP(=O)(O)O (stereo not shown) [CL-1565-A],IC50,L1210 Leukemia Cells,0.078 µg/mL
same,zone of inhibition at 500 µg/mL,Saccharomyces cervisiae,25 mm
same,zone of inhibition at 500 µg/mL,Saccharomyces italicus,17 mm
same,T/C × 100,"P388 Lymphatic Leukemia; 1.1 mg/kg/day, test-1",170
same,T/C × 100,"P388 Lymphatic Leukemia; 1.1 mg/kg/day, test-2",139
same,T/C × 100,"P388 Lymphatic Leukemia; 2.1 mg/kg/day, test-1",173
same,T/C × 100,"P388 Lymphatic Leukemia; 2.1 mg/kg/day, test-2",157
same,T/C × 100,"P388 Lymphatic Leukemia; 4.3 mg/kg/day, test-1",170
same,T/C × 100,"P388 Lymphatic Leukemia; 4.3 mg/kg/day, test-2",172
same,T/C × 100,"P388 Lymphatic Leukemia; 6.3 mg/kg/day, test-3",142
same,T/C × 100,"P388 Lymphatic Leukemia; 8.5 mg/kg/day, test-1",256
same,T/C × 100,"P388 Lymphatic Leukemia; 8.5 mg/kg/day, test-2",209
same,T/C × 100,"P388 Lymphatic Leukemia; 12.5 mg/kg/day, test-3",150
same,T/C × 100,"P388 Lymphatic Leukemia; 17 mg/kg/day, test-1",256
same,T/C × 100,"P388 Lymphatic Leukemia; 17 mg/kg/day, test-2",248
same,T/C × 100,"P388 Lymphatic Leukemia; 25 mg/kg/day, test-3",174
same,remaining at 168 h,[1]; 5° C.,100%
same,remaining at 504 h,[1]; 5° C.,100%
same,remaining at 840 h,[1]; 5° C.,100%
same,remaining at 168 h,[1]; 25° C.,87%
same,remaining at 504 h,[1]; 25° C.,77%
same,remaining at 840 h,[1]; 25° C.,69%
same,remaining at 168 h,[1]; 37° C.,70%
same,remaining at 504 h,[1]; 37° C.,26%
same,remaining at 168 h,[1]; -15° C.,100%
same,remaining at 504 h,[1]; -15° C.,100%
same,remaining at 840 h,[1]; -15° C.,100%
same,remaining at 2160 h,[1]; 5°,88%
same,remaining at 3600 h,[1]; 5°,86%
same,remaining at 6480 h,[1]; 5°,79%
same,remaining at 16560 h,[1]; 5°,74%
same,remaining at 2160 h,[1]; 25°,61%
same,remaining at 2160 h,[1]; -15°,100%
same,remaining at 3600 h,[1]; -15°,100%
same,remaining at 6480 h,[1]; -15°,100%
same,remaining at 16560 h,[1]; -15°,100%
same,degraded at 840 h,"[1]; five weeks at 25° C., read-out: decomposition",31%
same,remaining at 168 h,[2]; [3],92%
same,remaining at 336 h,[2]; [3],83%
same,remaining at 552 h,"[2]; Table 2, aqueous solution 5 mg/mL, 5° C., 23 days",76%
same,remaining at 168 h,[2]; [4],77%
same,remaining at 336 h,[2]; [4],63%
same,remaining at 552 h,"[2]; Table 2, aqueous solution 5 mg/mL, 25° C., 23 days",45%
same,remaining at 168 h,[2]; [5],81%
same,remaining at 336 h,[2]; [5],76%
same,remaining at 552 h,"[2]; Table 2, aqueous solution 15 mg/mL, 5° C., 23 days",66%
same,remaining at 168 h,[2]; [6],67%
same,remaining at 336 h,[2]; [6],55%
same,remaining at 552 h,"[2]; Table 2, aqueous solution 15 mg/mL, 25° C., 23 days",42%
same,remaining at 168 h,"[2]; Table 2, aqueous solution 15 mg/mL, 37° C.",35%
same,remaining at 48 h,"[2]; Table 4, aqueous solution 15 mg/mL, 5° C.",90%
same,remaining at 552 h,"[2]; Table 4, aqueous solution 15 mg/mL, 5° C., 23 days",66%
same,remaining at 48 h,"[2]; Table 4, aqueous solution 15 mg/mL, 25° C.",87%
same,remaining at 552 h,"[2]; Table 4, aqueous solution 15 mg/mL, 25° C., 23 days",42%
same,degraded at 552 h,"[2]; water, 23 days, 15 mg/mL in aqueous solution, read-out: decomposition",48%
